The source of these data is patent US20240116985A1, “STAPLED PEPTIDES AND METHODS THEREOF” (priority 2020, published 2024).

For series [1], the target named is T1, full-length beta-Catenin (Uniprot ID P35222) (Homo sapiens, UniProt P35222).
T1 construct: 10 nM full-length beta-Catenin (Uniprot ID P35222)
T1 sequence (P35222 1-781): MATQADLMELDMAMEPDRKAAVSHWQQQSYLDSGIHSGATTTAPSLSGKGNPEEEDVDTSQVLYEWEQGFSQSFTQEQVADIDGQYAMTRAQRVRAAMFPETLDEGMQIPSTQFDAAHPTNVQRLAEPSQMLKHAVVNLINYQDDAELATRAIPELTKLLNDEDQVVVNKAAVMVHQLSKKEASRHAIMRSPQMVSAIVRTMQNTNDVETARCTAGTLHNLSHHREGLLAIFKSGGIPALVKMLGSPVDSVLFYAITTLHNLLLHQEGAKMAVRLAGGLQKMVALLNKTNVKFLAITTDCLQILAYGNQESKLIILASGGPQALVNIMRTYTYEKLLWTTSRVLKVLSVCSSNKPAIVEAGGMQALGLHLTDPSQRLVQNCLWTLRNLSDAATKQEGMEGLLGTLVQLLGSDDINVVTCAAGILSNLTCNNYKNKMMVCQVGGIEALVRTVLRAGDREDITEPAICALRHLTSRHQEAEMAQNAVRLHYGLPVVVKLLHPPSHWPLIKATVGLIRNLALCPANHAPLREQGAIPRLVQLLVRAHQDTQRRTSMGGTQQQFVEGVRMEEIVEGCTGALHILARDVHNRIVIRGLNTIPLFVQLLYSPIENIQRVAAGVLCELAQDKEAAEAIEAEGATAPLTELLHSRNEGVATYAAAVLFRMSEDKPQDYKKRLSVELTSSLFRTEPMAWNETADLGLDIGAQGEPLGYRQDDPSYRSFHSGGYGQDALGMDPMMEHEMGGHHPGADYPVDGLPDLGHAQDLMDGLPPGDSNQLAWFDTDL
As to the kind of experiment: Fluorescence polarization IC50 (beta-catenin / 5FAM-TCF4 10-53 competition). The format is binding.

Series [2] is described as follows: Solubility in PBS. The format is physicochemical. An outline of the steps: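 Read-out is the HPLC peak area of the supernatant from ultracentrifuged PBS solution, scaled against a 50 μM peptide DMSO injection; value reported as [(PBS area)/(DMSO area)]*50 uM.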
A short description of series [3]: CHI Log D procedure. The format is physicochemical. To be noted: for chromatographic logD: pH 7.4, CHI Log D; for CHI Log D: pH 7.4.
Where [4] appears, read: Table E2-1, read-out: beta-Catenin FP IC50.
Setting [5] is: fluorescence polarization, beta-catenin, read-out: FP EC50.

What is called Solubility is how much of the substance goes into solution per volume. The term chromatographic logD denotes lipophilicity estimated from chromatographic retention. A high value points to a more lipophilic compound.

In brackets after ≈: the same amount, converted by molar mass. Like-named read-outs stand apart in the source and are kept apart here.

Take `CC(=O)N1CCC[C@]12CC=CCCCC1(CCCC=CCCCCCC[C@@](C)(C(=O)N[C@@H](Cc3ccccc3)C(=O)N[C@@H](Cc3c[nH]c4ccccc34)C(=O)N[C@@H](CCC(N)=O)C(N)=O)NC(=O)[C@H](C(C)C)NC(=O)[C@H](Cc3ccc(F)c(F)c3)NC(=O)[C@H](C)NC(=O)[C@H](C)NC(=O)[C@H](CC(=O)O)NC(=O)[C@H](CC(=O)O)NC1=O)NC(=O)[C@H](C)NC(=O)[C@H](CC(=O)O)NC2=O` (stereo partly drawn) [I-267, Ac-PL3-Asp-Ala-B5-Asp-Asp-Ala-Ala-34FF-Val-S8-Phe-Trp-Gln-NH2]: the IC50 in series [1] (setting [4]) came out at 5 µM. Besides, the concentration in solution in series [2] (Solubility (uM)) (Solubility) came to 37 µM (≈ 67.2 µg/mL). In series [3], the chromatographic logD came out at 2.05.
As to `CC(=O)N1CCC[C@]12CC=CCCCC1(CCCC=CCCCCCC[C@@](C)(C(=O)N[C@@H](Cc3ccccc3)C(=O)N[C@@H](Cc3c[nH]c4ccccc34)C(=O)N[C@@H](CCC(N)=O)C(N)=O)NC(=O)[C@H](C(C)C)NC(=O)[C@H](Cc3ccccc3)NC(=O)[C@H](C)NC(=O)[C@H](C)NC(=O)[C@H](Cc3cccnc3)NC(=O)[C@H](CC(=O)O)NC1=O)NC(=O)[C@H](C)NC(=O)[C@H](CC(=O)O)NC2=O` (stereo partly drawn) [I-271, Ac-PL3-Asp-Ala-B5-Asp-3PyrA-Ala-Ala-Phe-Val-S8-Phe-Trp-Gln-NH2], the IC50 in series [1] (setting [4]) amounted to 5 µM. Also, in series [2], the “Solubility” value stood at 10 µM (≈ 18.1 µg/mL). The compound also yielded a chromatographic logD in series [3] of 2.44.
Regarding `CC(=O)N1CCC[C@]12CC=CCCCC1(CCCC=CCCCCCC[C@@](C)(C(=O)N[C@@H](Cc3ccccc3)C(=O)N[C@@H](Cc3c[nH]c4ccccc34)C(=O)N[C@@H](CCC(N)=O)C(N)=O)NC(=O)[C@H](C(C)C)NC(=O)[C@H](Cc3ccccc3)NC(=O)[C@H](C)NC(=O)[C@H](C)NC(=O)[C@H](Cc3c[nH]cn3)NC(=O)[C@H](CC(=O)O)NC1=O)NC(=O)[C@H](C)NC(=O)[C@H](CC(=O)O)NC2=O` (stereo partly drawn) [I-305, Ac-PL3-Asp-Ala-B5-Asp-His-Ala-Ala-Phe-Val-S8-Phe-Trp-Gln-NH2], the IC50 in series [1] (setting [4]) and in series [1] (setting [5]) was 3.98 µM throughout. For the same compound, in series [2], the “Solubility” value was determined as 10 µM (≈ 18 µg/mL). In series [3], the “CHI Log D” value stood at 2.348.
Turning to `CC(=O)N1CCC[C@]12CC=CCCCC1(CCCC=CCCCCCC[C@@](C)(C(=O)N[C@@H](Cc3ccccc3)C(=O)N[C@@H](Cc3c[nH]c4ccccc34)C(=O)N[C@@H](CCC(N)=O)C(N)=O)NC(=O)[C@H](C(C)C)NC(=O)[C@H](Cc3ccsc3)NC(=O)[C@H](C)NC(=O)[C@H](C)NC(=O)[C@H](CC(=O)O)NC(=O)[C@H](CC(=O)O)NC1=O)NC(=O)[C@H](C)NC(=O)[C@H](CC(=O)O)NC2=O` (stereo partly drawn) [I-326, Ac-PL3-Asp-Ala-B5-Asp-Asp-Ala-Ala-3Thi-Val-S8-Phe-Trp-Gln-NH2], in series [1] (setting [4]), the IC50 was determined as 1.75 µM. Further, in series [2] (Solubility (uM)), the concentration in solution (Solubility) came to 34 µM (≈ 60.8 µg/mL). The chromatographic logD in series [3] is 1.97.
Regarding `CC(=O)N1CCC[C@]12CC=CCCCC1(CCCC=CCCCCCC[C@@](C)(C(=O)N[C@@H](Cc3ccccc3)C(=O)N[C@@H](Cc3c[nH]c4ccccc34)C(=O)N[C@@H](CCC(N)=O)C(N)=O)NC(=O)[C@H](C(C)C)NC(=O)[C@H](Cc3ccco3)NC(=O)[C@H](C)NC(=O)[C@H](C)NC(=O)[C@H](CC(=O)O)NC(=O)[C@H](CC(=O)O)NC1=O)NC(=O)[C@H](C)NC(=O)[C@H](CC(=O)O)NC2=O` (stereo partly drawn) [I-327, Ac-PL3-Asp-Ala-B5-Asp-Asp-Ala-Ala-2FurA-Val-S8-Phe-Trp-Gln-NH2], the IC50 in series [1] (setting [4]) and in series [1] (setting [5]) was 4.72 µM in each case. Further, the “Solubility” value in series [2] worked out at 43 µM (≈ 76.2 µg/mL). Moreover, in series [3], the “CHI Log D” value worked out at 1.958.
For `CC(=O)N1CCC[C@]12CC=CCCCC1(CCCC=CCCCCCC[C@@](C)(C(=O)N[C@@H](Cc3ccccc3)C(=O)N[C@@H](Cc3c[nH]c4ccccc34)C(=O)N[C@@H](CCC(N)=O)C(N)=O)NC(=O)[C@H](C(C)C)NC(=O)[C@H](Cc3ccco3)NC(=O)[C@H](C)NC(=O)[C@H](C)NC(=O)[C@H](CC(=O)O)NC(=O)[C@H](CC(=O)O)NC1=O)NC(=O)[C@H](C)NC(=O)[C@H](CC(=O)O)NC2=O` (stereo partly drawn) [I-328, Ac-PL3-Asp-Ala-B5-Asp-Asp-Ala-Ala-2FurA-Val-S8-Phe-Trp-Gln-NH2], the IC50 in series [1] (setting [4]) and in series [1] (setting [5]) was 1.91 µM throughout. Besides, in series [2], the “Solubility” value is 44 µM (≈ 77.9 µg/mL). Besides, in series [3], the “CHI Log D” value worked out at 1.983.
For the compound `CC(=O)N1CCC[C@]12CC=CCCCC1(CCCC=CCCCCCC[C@@](C)(C(=O)N[C@@H](Cc3ccccc3C(N)=O)C(=O)N[C@@H](Cc3csc4ccccc34)C(=O)N[C@@H](CCC(N)=O)C(N)=O)NC(=O)[C@H](C(C)C)NC(=O)[C@H](Cc3ccccc3)NC(=O)[C@H](C)NC(=O)[C@H](C)NC(=O)[C@H](CC(=O)O)NC(=O)[C@H](CC(=O)O)NC1=O)NC(=O)[C@H](C)NC(=O)[C@H](CC(=O)O)NC2=O` (stereo partly drawn) [I-336, Ac-PL3-Asp-Ala-B5-Asp-Asp-Ala-Ala-Phe-Val-S8-2CBMF-BztA-Gln-NH2], in series [1] (setting [4]), the IC50 came out at 0.153 µM. Moreover, the concentration in solution in series [2] (Solubility (uM)) (Solubility) came to 48 µM (≈ 88.4 µg/mL). The same compound gave a chromatographic logD in series [3] of 1.74.
On the same counts, the results for `CC(=O)N1CCC[C@]12CC=CCCCC1(CCCC=CCCCCCC[C@@](C)(C(=O)N[C@@H](Cc3ccc(O)cc3)C(=O)N[C@@H](Cc3csc4ccccc34)C(=O)N[C@@H](CCC(N)=O)C(N)=O)NC(=O)[C@H](C(C)C)NC(=O)[C@H](Cc3ccccc3)NC(=O)[C@H](C)NC(=O)[C@H](C)NC(=O)[C@H](CC(=O)O)NC(=O)[C@H](CC(=O)O)NC1=O)NC(=O)[C@H](C)NC(=O)[C@H](CC(=O)O)NC2=O` (stereo partly drawn) [I-341, Ac-PL3-Asp-Ala-B5-Asp-Asp-Ala-Ala-Phe-Val-S8-Tyr-BztA-Gln-NH2] are 2 µM, 38 µM (≈ 68.9 µg/mL) and 1.73.
`CC(=O)N1CCC[C@]12CC=CCCCC1(CCCC=CCCCCCC[C@@](C)(C(=O)N[C@@H](Cc3ccccc3)C(=O)N[C@@H](Cc3csc4ccccc34)C(=O)N[C@@H](CCC(N)=O)C(N)=O)NC(=O)[C@H]([C@@H](C)O)NC(=O)[C@H](Cc3ccccc3)NC(=O)[C@H](C)NC(=O)[C@H](C)NC(=O)[C@H](CC(=O)O)NC(=O)[C@H](CC(=O)O)NC1=O)NC(=O)[C@H](C)NC(=O)[C@H](CC(=O)O)NC2=O` (stereo partly drawn) [I-342, Ac-PL3-Asp-Ala-B5-Asp-Asp-Ala-Ala-Phe-Thr-S8-Phe-BztA-Gln-NH2]: the IC50 in series [1] (setting [4]) was 0.0585 µM. For the same compound, the “Solubility” value in series [2] is 50 µM (≈ 90 µg/mL). Further, in series [3], the chromatographic logD was 2.07.
For the compound `CC(=O)N1CCC[C@]12CC=CCCCC1(CCCC=CCCCCCC[C@@](C)(C(=O)N[C@@H](Cc3ccccc3)C(=O)N[C@@H](Cc3csc4ccccc34)C(=O)N[C@@H](CCC(N)=O)C(N)=O)NC(=O)[C@H](CC(N)=O)NC(=O)[C@H](Cc3ccccc3)NC(=O)[C@H](C)NC(=O)[C@H](C)NC(=O)[C@H](CC(=O)O)NC(=O)[C@H](CC(=O)O)NC1=O)NC(=O)[C@H](C)NC(=O)[C@H](CC(=O)O)NC2=O` (stereo partly drawn) [I-343, Ac-PL3-Asp-Ala-B5-Asp-Asp-Ala-Ala-Phe-Asn-S8-Phe-BztA-Gln-NH2], the IC50 in series [1] (setting [4]) and in series [1] (setting [5]) was 0.172 µM each time. In addition, the “Solubility” value in series [2] turned out to be 50 µM (≈ 90.7 µg/mL). Moreover, in series [3], the “CHI Log D” value was determined as 1.931.
For the compound `CC(=O)N1CCC[C@]12CC=CCCCC1(CCCC=CCCCCCC[C@@](C)(C(=O)N[C@@H](Cc3ccccc3)C(=O)N[C@@H](Cc3csc4ccccc34)C(=O)N[C@@H](CCC(N)=O)C(N)=O)NC(=O)[C@H](CC(N)=O)NC(=O)[C@H](Cc3ccccc3)NC(=O)[C@H](C)NC(=O)[C@H](C)NC(=O)[C@H](CC(=O)O)NC(=O)[C@H](CC(=O)O)NC1=O)NC(=O)[C@H](C)NC(=O)[C@H](CC(=O)O)NC2=O` (stereo partly drawn) [I-344, Ac-PL3-Asp-Ala-B5-Asp-Asp-Ala-Ala-Phe-Asn-S8-Phe-BztA-Gln-NH2], the IC50 in series [1] (setting [4]) and in series [1] (setting [5]) was 0.042 µM each time. In addition, the “Solubility” value in series [2] was found to be 44 µM (≈ 79.8 µg/mL). In series [3], the “CHI Log D” value is 1.977.
For `COC[C@@H]1NC(=O)[C@H](CC(=O)O)NC(=O)[C@]2(CC=CCCCC3(CCCC=CCCCCCC[C@@](C)(C(=O)N[C@@H](Cc4ccccc4)C(=O)N[C@@H](Cc4csc5ccccc45)C(=O)N[C@@H](CCC(N)=O)C(N)=O)NC(=O)[C@H](C(C)C)NC(=O)[C@H](Cc4ccccc4)NC(=O)[C@H](C)NC(=O)[C@H](C)NC(=O)[C@H](CC(=O)O)NC(=O)[C@H](CC(=O)O)NC3=O)NC1=O)CCCN2C(C)=O` (stereo partly drawn) [I-345, Ac-PL3-Asp-S(OMe)-B5-Asp-Asp-Ala-Ala-Phe-Val-S8-Phe-BztA-Gln-NH2], in series [1] (setting [4]), the IC50 was found to be 0.134 µM. Also, the concentration in solution in series [2] (Solubility (uM)) (Solubility) was 49 µM (≈ 89.6 µg/mL). In series [3], the chromatographic logD came out at 2.14.
